The text below walks through data of patent US20240010726A1, “LFA-1 SIGNALLING MEDIATOR FOR USE IN CANCER THERAPY” (Universität Basel, priority 2020, published 2024).

Test [1] relates to murine WT and LFA-1^−/− CTLs. In words: Glycolytic switch of murine WT and LFA-1−/− CTLs. It is filed as cell-based. As to conditions: anti-CD3/28 Ab; 0 mM vs 1.2 mM Mg^2+. As for the experimental part:
FIG. 3: Magnesium regulates LFA-1 mediated T cell activation and cytotoxicity as well BiTE- and CAR T-cell functionality. (a) Glycolytic switch of murine WT and LFA-1^-/- CTLs upon injection of anti-CD3/28 Ab in medium containing 1.2 mM Mg^2+ and 0 mM Mg^2+, presented as quantification of summarized data with n=4 mice. (b) Calcium flux in WT and LFA-1^-/- Jurkat T cells stimulated with anti-CD3 Ab in 1.2 mM and 0 mM Mg^2+ medium, respectively. Cells were loaded with Fluo4, and signal intensity as recorded by plate reader, was normalized to unstimulated baseline values. […] Quantified results of n=3 mice with 3 technical replicates each. […] The effector to target cell ratio was 3:1. Results are quantified of n=3 mice with 3 technical replicates each. (e) Representative CD11a (LFA-1) surface expression on human naïve and EM CD8 T cells, PHA T cell blasts and REP T cells, assessed by flow cytometry. […] The effector to target cell ratio was 1:1. Data is presented as quantified results of n=5 healthy donors (f, g, h), n=3 healthy donors with 2 technical replicates each or n=1 healthy donor with 4 technical replicates (j). […] Data is presented as quantified results of n=1 healthy donor with 4 technical replicates. […] (p) Abundance of IFNγ in cell culture supernatants corresponding to the conditions depicted in (o) at 24 hours was determined by ELISA (n=8, 3 independent experiments). […]

For test [2], the system named is human EM CD8 T cells. Briefly: Metabolic flux analysis, glycolytic switch of EM CD8 T cells. It counts as cell-based. As to the method:
FIG. 2: Extracellular magnesium promotes memory-specific activation via LFA-1. Glycolytic switch of human EM CD8 T cells (a) and naïve CD8 T cells (b) subsets upon injection of anti-CD3 Ab only, or anti-CD3 and anti-CD28 Ab, was assessed by metabolic flux analysis in medium containing either 1.2 mM Mg^2+, 0 mM Mg^2+, or medium which was reconstituted from 0 mM to 1.2 mM Mg^2+ immediately prior to activation (0→1.2 mM Mg^2+). (a) Results for human effector memory (EM) and (b) for human naïve CD8 T cells. Glycolytic switch was quantified by subtracting […] measurements. (c) Flow cytometric analysis of surface activation markers on human EM CD8 T cells 24 hours after activation by plate-bound anti-CD3 Ab and soluble anti-CD28 Ab, in 1.2 mM and 0 mM Mg^2+ media, respectively. (d) Abundance of inflammatory cytokines in corresponding EM CD8 T cell culture supernatants, determined by CBA. (e) CD11a (LFA-1) surface expression on human naïve and EM CD8 T cells as well PHA T cell blasts. Flow cytometry-based assessment of total LFA-1 expression assessed by mAb TS2/4 (f), closed conformation of αL by mAb HI111 (g), extended conformation of LFA-1 by mAb Kim127 (h), open head-piece conformation of LFA-1 by mAb m24 (i), phosphorylation of focal adhesion kinase (FAK) […] as well TNF expression (k)±TCR-induced activation in different extracellular Mg^2+ concentrations. (l) Flow cytometry-based assessment of LFA-1 with open-head piece conformation on human EM and naïve CD8 T cells using the open head-piece reporter mAb m24. (m) Assessment of glycolytic switch of EM CD8 T cells. (n) Assessment of glycolytic switch of naïve CD8 T cells. […] FIG. 4: […] Pooled results from n=6 healthy donors from 3 independent experiments. (b) CD69 expression of PHA T cell blasts upon activation with indicated concentrations of plate-bound anti-CD3 mAb in ±Mg^2+ containing medium. […] Cytotoxicity was quantified after adding luciferin to medium and measuring luminescent signal intensity. […] Cytotoxicity was quantified after adding luciferin to medium and measuring luminescent signal intensity. […]

With `[Mg+2]` [Mg^2+, Magnesium], in test [1], the “Glycolytic switch of LFA-1^−/− CTLs” value is listed as “independent from extracellular Mg^2+ concentrations” and the “Glycolytic switch of WT CTLs” value is given as “reduced glycolytic switching”. The “Glycolytic switch of EM CD8^+ T cells upon supra-physiologic activation” value in test [2] (anti-CD3/anti-CD28 Ab plus secondary cross-linking Ab, 0 mM, 1.2 mM, 0→1.2 mM Mg^2+) is recorded as “lost”. The “Glycolytic switch (ECAR) of EM CD8 T cells” value in test [2] (anti-CD3 or anti-CD3/anti-CD28 Ab, 0 mM vs 1.2 mM Mg^2+) was “blunted”. In addition, the “Glycolytic switch (ECAR) of EM CD8 T cells after Mg^2+ add-back” value in test [2] (medium reconstituted 0→1.2 mM Mg^2+ immediately prior to activation) was “fully revertible”.
